{"source": "patent US11072632B2", "about": "“Inhibitors of 17β-HSD1, 17β-HSD3 and 17β-HSD10” (UNIVERSITÉ LAVAL, priority 2011, dated 2021)", "key": {"[1]": {"system": "ovariectomized (OVX) mice", "test": "In vivo estrogenic activity (uterotrophic assay) in OVX mice", "parameters": "species or system mouse", "conditions": "OVX mice, s.c. BID, 7 days", "method": "The mice were fed rodent chow and tap water ad libitum. The animals were ovariectomized (OVX) under isoflurane-anaesthesia via bilateral flank incisions and randomly assigned to groups (5 animals by group). Mice in the OVX control group received the vehicle alone (8% ethanol-0.4% methylcellulose) during the 7-day period. The possible estrogenic activity of tested compounds was evaluated after their administration by subcutaneous (s.c.) injection [1, 10 and 100 μg/kg, s.c., twice daily (BID)] as suspension in 8% ethanol-0.4% methylcellulose to OVX female mice for 7 days. On day 8, the mice were sacrificed by cervical dislocation. The uteri and vagina were rapidly removed, freed from fat and connective tissue and weighed. Results are the means±SEM of 5 mice per group."}, "17β-HSD10 [2]": {"target": "T1, 17β-HSD10 (Homo sapiens, UniProt Q99714)", "T1 construct": "expressed in transfected cells", "T1 sequence (Q99714 1-261)": "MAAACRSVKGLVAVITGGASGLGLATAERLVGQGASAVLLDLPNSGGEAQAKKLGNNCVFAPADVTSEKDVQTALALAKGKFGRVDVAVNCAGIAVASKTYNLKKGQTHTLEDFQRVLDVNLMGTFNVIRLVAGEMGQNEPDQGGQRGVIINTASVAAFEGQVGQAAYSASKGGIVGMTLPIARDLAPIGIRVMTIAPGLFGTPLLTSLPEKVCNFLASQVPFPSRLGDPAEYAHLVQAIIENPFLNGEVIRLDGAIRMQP", "test": "Inhibition of 17β-HSD10 in stably transfected HEK-293 whole cells (E2 into E1)", "assay_type": "cell-based"}, "17β-HSD10 [3]": {"target": "T1, 17β-HSD10", "conditions": "read-out: Km of the enzyme for E2 as a substrate; cited from earlier work"}, "17β-HSD3 [4]": {"target": "T2, 17β-HSD3 (Homo sapiens, UniProt P37058)", "T2 construct": "expressed in transfected cells; host or cells: HEK-293 (homogenate)", "T2 sequence (P37058 1-310)": "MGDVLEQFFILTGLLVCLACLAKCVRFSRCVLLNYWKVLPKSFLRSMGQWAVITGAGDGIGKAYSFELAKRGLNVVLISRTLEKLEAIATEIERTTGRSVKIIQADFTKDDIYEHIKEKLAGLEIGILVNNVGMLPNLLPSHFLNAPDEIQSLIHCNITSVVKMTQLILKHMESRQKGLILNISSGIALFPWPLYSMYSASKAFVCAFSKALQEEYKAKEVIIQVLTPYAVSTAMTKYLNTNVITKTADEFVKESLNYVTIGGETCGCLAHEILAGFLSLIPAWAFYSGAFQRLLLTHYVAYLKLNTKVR", "test": "Inhibition of 17β-HSD3 in homogenated HEK-293 cells", "assay_type": "biochemical"}, "17β-HSD3 [5]": {"target": "T2, 17β-HSD3", "test": "Inhibition of 17β-HSD3 in intact HEK-293 cells", "assay_type": "cell-based"}, "[6]": {"system": "androgen-sensitive (AR+) Shionogi cells", "test": "Proliferative (androgenic) activity on androgen-sensitive Shionogi cells", "assay_type": "cell-based", "conditions": "0.1 and 1 μM", "method": "The proliferative (androgenic) activity was determined using androgen-sensitive Shionogi cells following a known literature procedure.^54 Inhibitors and reference compounds were tested at two concentrations (0.1 and 1.0 μM). The androgenicity was reported as % cell proliferation (versus the control). The basal cell proliferation (control) was fixed at 100%."}, "T-47D cells": {"system": "T-47D cells", "test": "Inhibition of E1-stimulated T-47D cell proliferation", "assay_type": "cell-based, human", "conditions": "E1 0.1 nM, no inhibitor; control 100%", "method": "Quantification of cell growth was determined by using CellTiter 96®Aqueous Solution Cell Proliferation Assay (Promega, Nepean, ON, Canada) following the manufacturer's instructions. T-47D cells were resuspended with the medium supplemented with insulin (50 ng/mL) and 5% dextran-coated charcoal treated FBS rather than 10% FBS to remove remaining hormones. Aliquots (100 μL) of the cell suspension were seeded in 96-well plates (3000 cells/well). After 48 h, the medium was changed with a new one containing an appropriate concentration of products to be tested and was replaced every 2 days. Cells have grown either in absence or presence of the compounds for 7 days. To determine the proliferative (estrogenic) activity, the estrogen-sensitive T-47D cells were grown in absence (basal cell proliferation was fixed as 100%) or presence of compounds to be tested at 0.5 to 10 μM. The potent estrogen E2 was used as a reference control. […] The cell proliferation without E1±inhibitor (control) was fixed as 100%. To determine the potential antiestrogenic activity of inhibitor Compound V, the T-47D (ER^+) cells were grown in the presence of estrogen E2 (0.1 nM) and pure antiestrogen EM-139 (0.5 μM) or inhibitor Compound V (0.5 μM). The cell proliferation without E2 and tested compounds (control) were fixed as 100%."}, "[7]": {"system": "ovariectomized (OVX) BALB/c mice", "test": "In vivo estrogenicity assay in OVX mice (uterus, vagina weight)", "parameters": "species or system mouse", "conditions": "OVX mice, s.c., 0.02 μg/mouse/day", "method": "Female ovariectomized (OVX) BALB/c mice weighing approximately 20 g were obtained from Charles-River, Inc. (St-Constant, Qc., Canada). The animals were housed 5 per cage. Groups of 5 mice were treated with E1 (0.02 μg in 8% EtOH/92% PG) or 17β-HSD1 inhibitor at 10, 50 and 250 μg (0.1 mL s.c.) daily for 7 days. Animals were killed 24 h after administration of the last dose of compound and uteri and vagina were removed, excised of fat and weighed. Total body weights of mice were also recorded."}, "T-47D tumors": {"system": "T-47D tumors", "test": "Inhibition of E1-stimulated T-47D tumor growth in nude OVX mice (xenograft)", "assay_type": "in vivo, mouse", "method": "Female OVX BALB/c athymic nude mice weighing approximately 20 g were obtained from Charles-River, Inc. (St-Constant, Qc., Canada). The animals were housed 5 per cage. […] T-47D tumor growth was stimulated using 0.1 μg of E1 s.c. per mouse per day for 15 days. From day 16, animals with tumors were randomized in function of tumor volume and separated into three groups. Group 1 (control mice) was treated s.c. with 100 μL of vehicle alone (8% EtOH/92% PG) per mouse per day. Group 2 (E1 0.1 μg) was treated with E1 (0.1 μg/day, s.c. per mouse) during 32 days. Group 3 (E1 0.1 μg+Compound V 250 μg) was treated with E1 (0.1 μg/day) and Compound V (250 μg/day) per mouse in a combined s.c. injection for 32 days. The mice were weighed at start and volumes of tumors were determined by external caliper twice a week and the greatest longitudinal diameter (length) and the greatest transverse diameter (width) were determined. Tumor volume based on caliper measurements was calculated by the modified ellipsoidal formula: Tumor volume=½(length×width^2) (Jensen M M, Jorgensen J T, Binderup T, Kjaer A. Tumor volume in subcutaneous mouse xenografts measured by microCT is more accurate and reproducible than determined by 18F-FDG-microPET or external caliper. BMC Med Imaging 2008; 8:16). At the end of the studies the mice were terminally anaesthetized, final body weights and tumor sizes were determined. Uteri and vagina were removed, excised of fat and weighed (Day J M, Foster P A, Tutill H J, Parsons M F, Newman S P, Chander S K, et al. 17beta-hydroxysteroid dehydrogenase type 1, and not type 12, is a target for endocrine therapy of hormone-dependent breast cancer. Int J Cancer 2008; 122:1931-40; Husen B, Huhtinen K, Poutanen M, Kangas L, Messinger J, Thole H. Evaluation of inhibitors for 17beta-hydroxysteroid dehydrogenase type 1 in vivo in immunodeficient mice inoculated with MCF-7 cells stably expressing the recombinant human enzyme. Mol Cell Endocrinol 2006; 248:109-13; Husen B, Huhtinen K, Saloniemi T, Messinger J, Thole H H, Poutanen M: Human hydroxysteroid (17-beta) dehydrogenase 1 expression enhances estrogen sensitivity of MCF-7 breast cancer cell xenografts. Endocrinology 2006; 147:5333-9; Messinger J, Hirvela L, Husen B, Kangas L, Koskimies P, Pentikainen O, et al. New inhibitors of 17beta-hydroxysteroid dehydrogenase type 1. Mol Cell Endocrinol 2006; 248:192-8)."}}, "note": "Where “and” joins values, the source holds several entries; their conditions need not be identical. Equal entries are not always repeated."}
{"smiles": "C[C@]12CC[C@@H]3c4ccc(O)cc4CC[C@H]3[C@@H]1CC[C@@H]2O", "note": "[17β-E2 (1), 17β-estradiol]", "values": [{"measurement": "uterine weight", "setting": "[1]; 1 μg/kg", "value": 125, "unit": "mg"}, {"measurement": "uterine weight", "setting": "[1]; 10 μg/kg", "value": 155, "unit": "mg"}, {"measurement": "uterine weight", "setting": "[1]; 100 μg/kg", "value": 160, "unit": "mg"}, {"measurement": "IC50", "setting": "17β-HSD10 [2]", "value": "> 10000", "unit": "nM"}, {"measurement": "Km", "setting": "17β-HSD10 [3]", "value": 43, "unit": "µM"}]}
{"smiles": "CC1CN(S(=O)(=O)c2ccccc2C(F)(F)F)C(C)CN1CC1(O)CCC2(C)C(CCC3C4CCC(=O)C4(C)CCC32)C1", "note": "(stereo not drawn) [Compound 15b, (3α,5α)-3-{[(2ξ,5ξ)-2,5-dimethyl-4-{[2-(trifluoromethyl)phenyl]sulfonyl}piperazin-1-yl]methyl}-3-hydroxyandrostan-17-one]", "values": [{"measurement": "Homo (%) (0.01 μM)", "setting": "17β-HSD3 [4]; Table 3, 0.01 μM", "value": 55, "unit": "%"}, {"measurement": "Homo (%) (0.1 μM)", "setting": "17β-HSD3 [4]; Table 3, 0.1 μM", "value": 92, "unit": "%"}, {"measurement": "Intact cells (%) (0.1 μM)", "setting": "17β-HSD3 [5]; Table 3, 0.1 μM", "value": 84, "unit": "%"}, {"measurement": "IC50", "setting": "17β-HSD3 [5]; intact HEK-293 cells overexpressing 17β-HSD3, [14C]-Δ4-dione 50 nM", "value": "6 nM and 5 nM"}, {"measurement": "fold better inhibitor than reference compound 5", "setting": "17β-HSD3 [5]; ratio of IC50 values", "value": 8, "unit": "fold"}, {"measurement": "fold better than unlabelled Δ4-dione used as inhibitor", "setting": "17β-HSD3 [5]; ratio of IC50 values", "value": 56, "unit": "fold"}, {"measurement": "proliferative (androgenic) effect", "setting": "[6]", "value": "did not stimulate the proliferation of AR^+ cells"}, {"measurement": "Inhibition (%) at 1 μM", "setting": "17β-HSD10 [2]; [14C]-E2 (1 μM) into [14C]-E1, intact HEK-293 cells, 1 μM", "value": 30, "unit": "%"}]}
{"smiles": "C[C@]12CC[C@@]3(C[C@@H]1CC[C@@H]1[C@@H]2CC[C@]2(C)C(=O)CC[C@@H]12)CN(Cc1ccccc1)C(=O)O3", "note": "[Compound 17a, (3R,5S,8R,9S,10S,13S,14S)-3′-benzyl-10,13-dimethyltetradecahydro-2′H spiro[cyclopenta[α]phenanthrene-3,5′-[1,3]oxazolidine]-2′,17(2H)-dione]", "values": [{"measurement": "inhibition at 0.01 µM", "setting": "17β-HSD3 [4]; read-out: Homo (%) (0.01 μM), Table 4, 0.01 μM", "value": 21, "unit": "%"}, {"measurement": "inhibition at 0.1 µM", "setting": "17β-HSD3 [4]; read-out: Homo (%) (0.1 μM), Table 4, 0.1 μM", "value": 86, "unit": "%"}, {"measurement": "inhibition at 1 µM", "setting": "17β-HSD3 [4]; read-out: Homo (%) (1.0 μM), Table 4, 1.0 μM", "value": 93, "unit": "%"}, {"measurement": "inhibition at 0.1 µM", "setting": "17β-HSD3 [5]; HEK293, 1 h, read-out: Intact cells (%) (0.1 μM), Table 4, 0.1 μM", "value": 44, "unit": "%"}, {"measurement": "proliferative (androgenic) effect", "setting": "[6]", "value": "did not stimulate the proliferation of AR^+ cells"}]}
{"smiles": "C[C@]12CC[C@@H]3c4ccc(O)cc4CC[C@H]3[C@@H]1CCC2=O", "note": "[Compound E1, estrone, reference compound]", "values": [{"measurement": "cell growth induced by E1 alone", "setting": "T-47D cells", "value": 250, "unit": "%"}, {"measurement": "increase in uterine weight compared to OVX-CTR (times)", "setting": "[7]", "value": 2.5}, {"measurement": "uterine weight", "setting": "[7]", "value": 55, "unit": "mg"}, {"measurement": "tumor size, % of initial size", "setting": "T-47D tumors; E1 0.1 μg/day s.c. alone, 32 days", "value": 136, "unit": "%"}, {"measurement": "effect on mouse weight", "setting": "T-47D tumors; mouse, in vivo", "value": "no effect"}]}
